Literature values, collected in patent US20190249218A1, “Method, Medium and Kit for Detecting Multiple Aminoglycoside Resistance Including 16S rRNA Methylase Mediated Resistance in Gram-Negative Bacteria” (priority 2016, published 2019).

What was measured:
[1] = test system: aminoglycoside modifying enzymes such as the nucleotidyl, acetyl and phosphoryl enzymes; settings: reference (12); cited from earlier work
[2] = test system: 16S rRNA methylase producers; settings: reference (13); cited from earlier work

For `CN[C@@H]1[C@@H](O)[C@@H](O[C@@H]2[C@@H](O)[C@H](O[C@H]3OC(CNCCO)=CC[C@H]3N)[C@@H](N)C[C@H]2NC(=O)[C@@H](O)CCN)OC[C@]1(C)O` [Plazomicin], the “activity against aminoglycoside modifying enzymes” value [1] is given as “active” and the “activity against 16S rRNA methylase producers” value [2] is given as “inactive”.
